Here are results for 20 compounds from patent US20030170221A1, “STREPTOMYCES MEGASPORUS SD5, PROCESS FOR THE ISOLATION THEREOF, NOVEL FIBRINOLYTIC ENZYME PREPARED THEREFROM, PROCESS FOR THE PRODUCTION OF SAID ENZYME AND METHOD OF TREATMENT OF THROMBOLYTIC DISORDERS USING SAID ENZYME” (MAHARASHTRA ASSOC. FOR THE CULTIVATION OF SCIENCE, priority 2001, published 2003).

Series [1] has as its system fibrinolytic enzyme produced by S. megasporus SD5. Nature of the series: Effect of protease inhibitors on fibrinolytic activity of the crude enzyme (FIG. 5). It counts as biochemical, Streptomyces megasporus SD5. An excerpt:
(§1) 1.Control, 2—Antipain—3, Bestatin, —4, Chymostatin, —5. E-64, 6—Leupeptin, 7—Pepstatin, 8 Phosphoramidon, 9—pefabloc, 10—EDTA, 11—EDTA+Ca^++, 12—Aprotinin, 13—Trypsin inhibitor, 14—β-mercaptoethanol, 15—TPCK, 16—1, 10 pheuanthroline, 17—PMSF.
To determine the class to which the enzyme belonged the effect of different protease inhibitors were studied in detail.

Series [2] concerns fibrinolytic enzyme (actinokinase) produced by Streptomyces megasporus SD5, ~35 kDa, wild type. Kind of series: Effects of various inhibitors on fibrinolytic activity of the enzyme (FIG. 5). It counts as biochemical. Particulars: result in words. The procedure:
as §1
The fibrinolytic (thrombolytic) activity was assayed on solid and liquid media (Harverkate & Trass 1974, Lottenberg et al. 1981). The reaction mixture (1 ml) comprised of chromogenic substrates, such as benzoyl-β-alanyl-glycyl-arginine-ρ nitroanilide (20 μmol 1^−1) in 10 mM sodium phosphate buffer, pH 8.0 and incubated at 55° C. for 30 min after addition of 1 ml, enzyme solution containing 0.5 μg protein ml^−1, cooled to room temperature and the liberation of ρ-nitroanilide was measured by increased absorbance recorded at 405 nm using a UV-VIS Spectrophotometer (DU 8B, Beckman, Sweden). One unit of the enzyme was defined as the amount of enzyme that catalysed the formation of 1 ng of ρ-nitroanilide min^−1. The caseinolytic activity was determined by Dunn (1989) in terms of μmol tyrosine min^−1. Protein was determined using Folin Ciocalteau phenol reagent. All the results of growth and assays are the means of three separate experiments.
To determine the class to which the enzyme belonged the effect of different protease inhibitors were studied in detail. As the fibrinolytic enzyme could be used as a therapeutic agent for different types of thrombosis so in vitro clot lysis was studied with both natural and synthetic clots.

The subject of series [3] is actinokinase. Kind of series: Effects of inhibitors and metal ions on activity of the purified enzyme. It counts as biochemical, Streptomyces megasporus SD5.
Protocol: (§2) Different protease inhibitors were separately dissolved in distilled water/methanol/dimethyl sulphoxide as per manufacturers protocol, so that final concentration of each inhibitor was 1 mM. The enzyme (50 μl) was mixed with same amount (50 μl) of inhibitor and incubate at ambient temperature for 30 min. The residual activity was measured at 55° C. as above using universal protease substrate and compared with that of the control without any inhibitor and the inhibition was determined as percentage taking control as 100% positive.
Series [4] relates to actinokinase, fibrinolytic enzyme from Streptomyces megasporus SD5, 35 kDa serine protease, wild type. Particulars: 1 mM inhibitor, ambient temperature 30 min; residual activity at 55° C., universal protease substrate.
Protocol: as §2
The test system is the same in series [5]. Nature of the series: Michaelis constant with Chromozyme U as substrate, Lineweaver-Burk plot. It counts as biochemical. The following applies: in absence of plasminogen. The procedure: The thrombolytic activity was measured on standard fibrin plate using the method of Haverkate-Trass (1974) as mentioned previously and compared with available thrombolytic enzyme, urokinase, Each sample (20 μl) was put on the fibrin clot layer and incubated at both 55° C. and 37° C. for 8 h. The zone of clear areas for standard urokinase and the enzyme of the invention was measured and thrombolytic activities of both enzymes were expressed in terms of Plough units. Amidolytic activity was determined using chromogenic substrates and one unit of activity is defined as the amount of enzyme, which released […] of pNA min^−1. Amydolytic activity in liquid medium was determined using the method by Lottenberg et al (1981). Caseinolytic activity was assayed by the procedure described by Pokorny et al (1979). Protein concentration was estimated by a modification of the Lowry's method (1951).
Substrate specificity of the enzyme was assessed at 405 nm by using various synthetic peptide substrates, (20 μM) tagged with ρ-nitranilide acetate and resorufin, in the reaction mixture. The Michaelis constant (Km) was determined using Chromozyme U as substrate using line weaver Burk plot method (Jayaraman 1985).

Series [6] deals with Streptomyces megasporus SD5. Nature of the series: Antibiotic sensitivity of the strain. It counts as cell-based. The following applies: concentration of 50 μg ml^−1.
The conditions of series [7]: reportedly; cited from earlier work.
Series [8] concerns fibrin. The following applies: prior art; cited from earlier work.
A short description of series [9]: Pharmacological properties of thrombolytic agents in acute myocardial infarctions. Particulars: for Efficacy (<4 h): acute myocardial infarctions.
For series [10] the following is noted: cited from earlier work.
The conditions of series [11]: in vivo.
The conditions of series [12]: Table III, available enzymes; cited from earlier work.
Where [13] appears, read: inhibitor 1 mM, purified enzyme, universal protease substrate, 55° C.

Read-outs that look alike come from different tables or passages of the source. Square brackets hold non-standard residues; d marks the D form. Peptide text beside a SMILES is read from it. * marks the point of attachment. Sta = CC(C)C[C@H](N)[C@@H](O)CC(=O)O; Isovaleryl = CC(C)CC(=O)* A value given as a limit tells only on which side of the number the result lay.

Regarding `c1cnc2c(c1)ccc1cccnc12` [1,10 phenanthroline], in series [1] (crude enzyme, FIG. 5), the “effect of inhibitor on fibrinolytic activity of the enzyme” value (from here on “effect of inhibitor … of the enzyme”) was “No change”. The “effect of inhibitor on fibrinolytic activity” value in [2] was “No change in the activity”. Also, the “effect of inhibitor on enzymatic activity” value in [3] (setting [13]) was “No change in activity”.

For the compound `CC(C)C[C@H](NC(=O)[C@@H](O)[C@H](N)Cc1ccccc1)C(=O)O` [Bestatin], the “effect of inhibitor … of the enzyme” value in series [1] (crude enzyme, FIG. 5) is recorded as “strongly repressed”. For the same compound, the “effect of inhibitor on enzymatic activity” value in series [3] (setting [13]) is given as “highly repressed”.

With `CC(C)C[C@H](NC(=O)[C@@H](NC(=O)N[C@@H](Cc1ccccc1)C(=O)O)[C@@H]1CCN=C(N)N1)C(=O)N[C@H](C=O)Cc1ccccc1` [Chymostatin], the “effect of inhibitor … of the enzyme” value in series [1] (crude enzyme, FIG. 5) is on record as “strongly repressed”. Besides, the “effect of inhibitor on enzymatic activity” value in series [3] (setting [13]) is “highly repressed”.

For `CC(C)C[C@H](NC(=O)[C@H]1O[C@@H]1C(=O)O)C(=O)NCCCCN=C(N)N` [E-64], the “effect of inhibitor on enzymatic activity” value in series [3] (setting [13]) is “Insignificant inhibition”.

For `O=C(O)CN(CCN(CC(=O)O)CC(=O)O)CC(=O)O` [EDTA], the “effect of inhibitor … of the enzyme” value in [1] was “inhibitory effect”. Further, the “effect of inhibitor on fibrinolytic activity” value in series [2] was “inhibitory effect”. The “effect of inhibitor on enzymatic activity” value in series [3] and in series [4] was “inhibitory effect” throughout.

Regarding `CC(=O)N[C@@H](CC(C)C)C(=O)N[C@@H](CC(C)C)C(=O)N[C@H](C=O)CCCNC(=N)N` [Leupeptin], the “effect of inhibitor … of the enzyme” value in series [1] (crude enzyme, FIG. 5) is reported as “moderately sensitive”. Moreover, the “effect of inhibitor on enzymatic activity” value in series [3] (setting [13]) is reported as “moderately sensitive”.

For the compound `O=S(=O)(F)Cc1ccccc1` [PMSF], the “effect of inhibitor … of the enzyme” value in [1] (crude enzyme, FIG. 5) is recorded as “strongly repressed”. In series [3] (setting [13]), the “effect of inhibitor on enzymatic activity” value is on record as “highly repressed”.

`Cl.NCCc1ccc(S(=O)(=O)F)cc1` [Pefabloc, pefabloc]: in series [1] (crude enzyme, FIG. 5), the “effect of inhibitor … of the enzyme” value is listed as “strongly repressed”. The “effect of inhibitor on enzymatic activity” value in [3] (setting [13]) is “highly repressed”.

With `CC(C)CC(=O)N[C@H](C(=O)N[C@H](C(=O)N[C@@H](CC(C)C)[C@@H](O)CC(=O)N[C@@H](C)C(=O)N[C@@H](CC(C)C)[C@@H](O)CC(=O)O)C(C)C)C(C)C` [Pepstatin] (Isovaleryl-VV[Sta]A[Sta]-OH), in series [3] (setting [13]), the “effect of inhibitor on enzymatic activity” value is “Insignificant inhibition”.

As for `CC(C)C[C@H](NP(=O)(O)O[C@@H]1O[C@@H](C)[C@H](O)[C@@H](O)[C@H]1O)C(=O)N[C@@H](Cc1c[nH]c2ccccc12)C(=O)O` [Phosphoramidon], the “effect of inhibitor … of the enzyme” value in series [1] (crude enzyme, FIG. 5) was “No change”. Also, the “effect of inhibitor on enzymatic activity” value in [3] (setting [13]) is on record as “No change in activity”.

On to `Cc1ccc(S(=O)(=O)N[C@@H](Cc2ccccc2)C(=O)CCl)cc1` [TPCK], for which the “effect of inhibitor … of the enzyme” value in series [1] (crude enzyme, FIG. 5) is “moderately sensitive”. The “effect of inhibitor on enzymatic activity” value in series [3] (setting [13]) is reported as “moderately sensitive”.

Broadly, the Km is the substrate concentration at which the rate is half of its maximum. Turning to `N=C(N)NCCC[C@H](NC(=O)CNC(=O)CCNC(=O)c1ccccc1)C(=O)Nc1ccc([N+](=O)[O-])cc1` [chromozyme U, Benzoyl-β-ala-gly-arg-4-ρNA] (HELM PEPTIDE1{[O=C(c1ccccc1)[*:2]].[bAla].G.R.[O=[N+]([O-])c1ccc(N[*:1])cc1]}$$$$V2.0), in series [5], the Km was found to be 2.2 µM.

In the case of `CCC[C@@H]1C[C@@H](C(=O)N[C@@H]([C@H]2O[C@H](SC)[C@H](O)[C@@H](O)[C@H]2O)[C@@H](C)O)N(C)C1` [lincomycin], the “inhibition of the microorganism” value in [6] is on record as “inhibited”.

Take `CC(C)C[C@H](NP(=O)(O)O[C@@H]1O[C@@H](C)[C@H](O)[C@@H](O)[C@H]1O)C(=O)N[C@@H](Cc1c[nH]c2ccccc12)C(=O)O` [phosphoramidin]: the “effect of inhibitor on fibrinolytic activity” value in [2] is “No change in the activity”.

Turning to `C=C(NC(=O)C(=C)NC(=O)c1csc(C2=N[C@@H]3c4csc(n4)[C@H]4NC(=O)c5csc(n5)[C@H]([C@](C)(O)[C@@H](C)O)NC(=O)[C@H]5CSC(=N5)/C(=C/C)NC(=O)[C@H]([C@@H](C)O)NC(=O)c5csc(n5)[C@]3(CC2)NC(=O)[C@H](C)NC(=O)C(=C)NC(=O)[C@H](C)NC(=O)[C@H]([C@@H](C)CC)N[C@@H]2C=Cc3c([C@H](C)O)cc(nc3[C@H]2O)C(=O)O[C@@H]4C)n1)C(N)=O` [thiostrepton], the “inhibition of the microorganism” value in [6] was “inhibited”.

On to `OCCS` [β-mercaptoethanol], for which the “effect of inhibitor on enzymatic activity” value in series [3] (setting [13]) is “Insignificant inhibition”.

Aprotinin: in series [1] (crude enzyme, FIG. 5), the “effect of inhibitor … of the enzyme” value is “strongly repressed”. In series [3] (setting [13]), the “effect of inhibitor on enzymatic activity” value is listed as “highly repressed”.

With “Streptokinase: prior art plasminogen activator”, the “failure rate as thrombolytic agent” value in series [7] was not above 25%. For the same compound, the affinity for fibrin result in series [8] is “do not show any affinity”. For the same compound, the “Efficacy (<4 h)” value in series [9] amounted to 65. Moreover, in [9] (in vivo), the Adverse effects entry is “Haemorragic” and the “Half life” value came out at 23 min.

Turning to T-PA: tissue plasmiogen activators, the “Efficacy (<4 h)” value in series [10] (acute myocardial infarctions, data from the literature) is listed as 70. For the same compound, the “Half life” value in series [10] (in vivo) was 5 min.

As to Urokinase, the “Half life” value in series [11] is 16 min. Further, in series [12], the “Optimum Temperature” value is 37 °C and the “Optimum pH” value is listed as 7.5. Further, the affinity for fibrin entry in [8] is “do not show any affinity”. The “Efficacy (<4 h)” value in series [9] is given as 65.
